Measurements published in the NIST ThermoML archive (doi:10.1021/je900596d).
Numbers after ± are expanded uncertainties.

Details: 358.16 K, Fluid (supercritical or subcritical phases), Vibrating tube method

FC(F)=C(F)C(F)(F)F [hexafluoropropene]
mass density (6.7 kPa): 0.18 ± 0.03 kg/m3 | mass density (7.2 kPa): 0.21 ± 0.03 kg/m3 | mass density (7.5 kPa): 0.23 ± 0.03 kg/m3 | mass density (7.7 kPa): 0.26 ± 0.03 kg/m3 | mass density (8.5 kPa): 0.27 ± 0.03 kg/m3 | mass density (8.8 kPa): 0.31 ± 0.03 kg/m3 | mass density (9.2 kPa): 0.32 ± 0.03 kg/m3 | mass density (9.8 kPa): 0.34 ± 0.03 kg/m3 | mass density (12.4 kPa): 0.45 ± 0.03 kg/m3 | mass density (13.4 kPa): 0.5 ± 0.03 kg/m3 | mass density (14.5 kPa): 0.6 ± 0.03 kg/m3 | mass density (15.5 kPa): 0.63 ± 0.03 kg/m3 | mass density (16.5 kPa): 0.69 ± 0.03 kg/m3 | mass density (17.6 kPa): 0.76 ± 0.03 kg/m3 | mass density (19.6 kPa): 0.84 ± 0.03 kg/m3 | mass density (20.7 kPa): 0.88 ± 0.03 kg/m3 | mass density (21.7 kPa): 0.92 ± 0.03 kg/m3 | mass density (22.7 kPa): 1.01 ± 0.03 kg/m3 | mass density (23.9 kPa): 1.07 ± 0.03 kg/m3 | mass density (25.9 kPa): 1.13 ± 0.03 kg/m3 | mass density (26.9 kPa): 1.2 ± 0.03 kg/m3 | mass density (27.9 kPa): 1.24 ± 0.03 kg/m3 | mass density (29 kPa): 1.31 ± 0.03 kg/m3 | mass density (30 kPa): 1.37 ± 0.03 kg/m3 | mass density (31 kPa): 1.42 ± 0.03 kg/m3 | mass density (32 kPa): 1.45 ± 0.03 kg/m3 | mass density (33 kPa): 1.5 ± 0.03 kg/m3 | mass density (34 kPa): 1.62 ± 0.03 kg/m3 | mass density (35.1 kPa): 1.63 ± 0.03 kg/m3 | mass density (36.1 kPa): 1.72 ± 0.03 kg/m3 | mass density (39.1 kPa): 1.8 ± 0.03 kg/m3 | mass density (40.1 kPa): 1.85 ± 0.03 kg/m3 | mass density (41.2 kPa): 1.9 ± 0.03 kg/m3 | mass density (42.2 kPa): 1.99 ± 0.03 kg/m3 | mass density (45.3 kPa): 2.13 ± 0.03 kg/m3 | mass density (52.2 kPa): 2.54 ± 0.03 kg/m3 | mass density (58.8 kPa): 2.84 ± 0.03 kg/m3 | mass density (65.5 kPa): 3.31 ± 0.03 kg/m3 | mass density (72.2 kPa): 3.58 ± 0.03 kg/m3 | mass density (79 kPa): 3.91 ± 0.03 kg/m3 | mass density (85.8 kPa): 4.34 ± 0.03 kg/m3 | mass density (92.6 kPa): 4.61 ± 0.03 kg/m3 | mass density (99.4 kPa): 4.96 ± 0.03 kg/m3 | mass density (115.5 kPa): 5.84 ± 0.03 kg/m3 | mass density (124.6 kPa): 6.23 ± 0.03 kg/m3 | mass density (133.8 kPa): 6.76 ± 0.03 kg/m3 | mass density (142.9 kPa): 7.23 ± 0.03 kg/m3 | mass density (152 kPa): 7.73 ± 0.04 kg/m3 | mass density (161.1 kPa): 8.2 ± 0.04 kg/m3 | mass density (170.1 kPa): 8.69 ± 0.04 kg/m3 | mass density (179.2 kPa): 9.15 ± 0.04 kg/m3 | mass density (188.3 kPa): 9.64 ± 0.04 kg/m3 | mass density (197.2 kPa): 10.14 ± 0.04 kg/m3 | mass density (201.8 kPa): 10.33 ± 0.04 kg/m3 | mass density (215.2 kPa): 11.03 ± 0.04 kg/m3 | mass density (228.6 kPa): 11.76 ± 0.04 kg/m3 | mass density (241.9 kPa): 12.39 ± 0.04 kg/m3 | mass density (255.2 kPa): 13.18 ± 0.04 kg/m3 | mass density (268.5 kPa): 13.87 ± 0.04 kg/m3 | mass density (281.6 kPa): 14.57 ± 0.04 kg/m3 | mass density (295.2 kPa): 15.37 ± 0.04 kg/m3 | mass density (308.9 kPa): 16.07 ± 0.04 kg/m3 | mass density (323.1 kPa): 16.83 ± 0.04 kg/m3 | mass density (337.5 kPa): 17.58 ± 0.04 kg/m3 | mass density (352.1 kPa): 18.44 ± 0.04 kg/m3 | mass density (366.8 kPa): 19.21 ± 0.04 kg/m3 | mass density (381.5 kPa): 19.95 ± 0.04 kg/m3 | mass density (396.2 kPa): 20.78 ± 0.04 kg/m3 | mass density (411 kPa): 21.59 ± 0.04 kg/m3 | mass density (427.6 kPa): 22.57 ± 0.05 kg/m3 | mass density (444 kPa): 23.52 ± 0.05 kg/m3 | mass density (460.4 kPa): 24.33 ± 0.05 kg/m3 | mass density (476.7 kPa): 25.35 ± 0.05 kg/m3 | mass density (492.9 kPa): 26.26 ± 0.05 kg/m3 | mass density (509.2 kPa): 27.13 ± 0.05 kg/m3 | mass density (525.3 kPa): 28.12 ± 0.05 kg/m3 | mass density (541.5 kPa): 29.02 ± 0.05 kg/m3 | mass density (557.6 kPa): 29.96 ± 0.05 kg/m3 | mass density (575.1 kPa): 31 ± 0.05 kg/m3 | mass density (592.7 kPa): 31.99 ± 0.05 kg/m3 | mass density (610.1 kPa): 32.94 ± 0.06 kg/m3 | mass density (627.5 kPa): 34 ± 0.06 kg/m3 | mass density (645.1 kPa): 35.06 ± 0.06 kg/m3 | mass density (663.8 kPa): 36.18 ± 0.06 kg/m3 | mass density (682.3 kPa): 37.25 ± 0.06 kg/m3 | mass density (700.8 kPa): 38.41 ± 0.06 kg/m3 | mass density (719.1 kPa): 39.53 ± 0.06 kg/m3 | mass density (737.3 kPa): 40.62 ± 0.06 kg/m3 | mass density (755.2 kPa): 41.68 ± 0.07 kg/m3 | mass density (773.2 kPa): 42.77 ± 0.07 kg/m3 | mass density (791.1 kPa): 43.9 ± 0.07 kg/m3 | mass density (808.6 kPa): 44.92 ± 0.07 kg/m3 | mass density (843.9 kPa): 47.16 ± 0.07 kg/m3 | mass density (861.2 kPa): 48.3 ± 0.07 kg/m3 | mass density (878.4 kPa): 49.34 ± 0.08 kg/m3 | mass density (895.4 kPa): 50.38 ± 0.08 kg/m3 | mass density (912.3 kPa): 51.52 ± 0.08 kg/m3 | mass density (929.2 kPa): 52.65 ± 0.08 kg/m3 | mass density (945.9 kPa): 53.68 ± 0.08 kg/m3 | mass density (964.1 kPa): 54.95 ± 0.08 kg/m3 | mass density (981.4 kPa): 56.09 ± 0.08 kg/m3 | mass density (999 kPa): 57.2 ± 0.09 kg/m3 | mass density (1004 kPa): 57.55 ± 0.09 kg/m3 | mass density (1037.2 kPa): 59.89 ± 0.09 kg/m3 | mass density (1056.7 kPa): 61.12 ± 0.09 kg/m3 | mass density (1079.5 kPa): 62.72 ± 0.09 kg/m3 | mass density (1113.6 kPa): 65.06 ± 0.1 kg/m3 | mass density (1151.3 kPa): 67.79 ± 0.1 kg/m3 | mass density (1177.8 kPa): 69.69 ± 0.1 kg/m3 | mass density (1204.6 kPa): 71.61 ± 0.1 kg/m3 | mass density (1231.5 kPa): 73.4 ± 0.11 kg/m3 | mass density (1251 kPa): 74.95 ± 0.11 kg/m3 | mass density (1277.5 kPa): 76.93 ± 0.11 kg/m3 | mass density (1297.2 kPa): 78.23 ± 0.11 kg/m3 | mass density (1318.3 kPa): 79.8 ± 0.12 kg/m3 | mass density (1351 kPa): 82.19 ± 0.12 kg/m3 | mass density (1384.5 kPa): 84.6 ± 0.12 kg/m3 | mass density (1419.6 kPa): 87.38 ± 0.13 kg/m3 | mass density (1453.8 kPa): 89.96 ± 0.13 kg/m3 | mass density (1487.2 kPa): 92.64 ± 0.14 kg/m3 | mass density (1522.4 kPa): 95.5 ± 0.14 kg/m3 | mass density (1557 kPa): 98.35 ± 0.14 kg/m3 | mass density (1592 kPa): 101.11 ± 0.15 kg/m3 | mass density (1624.7 kPa): 103.88 ± 0.15 kg/m3 | mass density (1659.3 kPa): 106.85 ± 0.16 kg/m3 | mass density (1677.7 kPa): 108.37 ± 0.16 kg/m3 | mass density (1712.3 kPa): 111.38 ± 0.16 kg/m3 | mass density (1748.1 kPa): 114.59 ± 0.17 kg/m3 | mass density (1780.9 kPa): 117.54 ± 0.17 kg/m3 | mass density (1815.7 kPa): 120.8 ± 0.18 kg/m3 | mass density (1848.2 kPa): 123.82 ± 0.18 kg/m3 | mass density (1883.1 kPa): 127.18 ± 0.19 kg/m3 | mass density (1916.7 kPa): 130.47 ± 0.2 kg/m3
